# Tests used:
# Type in all cases: cell-based
# [1] = system: Target C CJ mRNA; test: Gene panel canonical junction qPCR assay, Target C; conditions: decrease in CJ mRNA levels, RT-qPCR
# Procedure: (§1) Compounds described herein were used to modulate RNA transcript abundance in cells. The expression of a target mRNA was measured by detecting the formation of an exon-exon junction in the canonical transcript (CJ). A compound mediated exon-inclusion event was detected by observing an increase in formation of a new junction with an alternative exon (AJ). Real-time qPCR assays were used to detect these splicing switches and interrogate the potency of various compounds towards different target genes. A high-throughput real time quantitative PCR (RT-qPCR) assay was developed to measure these two isoforms of the mRNA (CJ and AJ) for an exemplary gene, HTT, together with a control housekeeping gene, GAPDH or GUSB or PPIA, used for normalization. Briefly, the A673 or K562 cell line was treated with various compounds described herein (e.g., compounds of Formula (I)). After treatment, the levels of the HTT mRNA targets were determined from each sample of cell lysate by cDNA synthesis followed by qPCR.
# (§2) The A673 cell line was cultured in DMEM with 10% FBS. Cells were diluted with full growth media and plated in a 96-well plate (15,000 cells in 100 ul media per well). The plate was incubated at 37° C. with 5% CO2 for 24 hours to allow cells to adhere. An 11-point 3-fold serial dilution of the compounds was made in DMSO then diluted in media in an intermediate plate. Compounds were transferred from the intermediate plate to the cell plate with the top dose at a final concentration of 10 uM in the well. Final DMSO concentration was kept at or below 0.25%. The cell plate was returned to the incubator at 37° C. with 5% CO2 for an additional 24 hours.
# (§3) The K562 cell line was cultured in IMDM with 10% FBS. For K562, cells were diluted with full growth media and plated in either a 96-well plate (50,000 cells in 50 uL media per well) or a 384-well plate (8,000-40,000 cells in 45 uL media per well). An 11-point 3-fold serial dilution of the compounds were made in DMSO then diluted in media in an intermediate plate. Compound was transferred from the intermediate plate to the cell plate with the top dose at a final concentration of 10 uM in the well. Final DMSO concentration was kept at or below 0.25%. Final volume was 100 uL for 96-well plate and 50 uL for 384-well plate. The cell plate was then placed in an incubator at 37° C. with 5% CO2 for 24 hours.
# (§4) The cells were then gently washed with 50 uL-100 uL cold PBS before proceeding to addition of lysis buffer. 30 uL-50 uL of room temperature lysis buffer with DNAse I (and optionally RNAsin) was added to each well. Cells were shaken/mixed thoroughly at room temperature for 5-10 minutes for lysis to take place and then 3 uL-5 uL of room temperature stop solution was added and wells were shaken/mixed again. After 2-5 minutes, the cell lysate plate was transferred to ice for RT-qPCR reaction setup. The lysates could also be frozen at −80° C. for later use.
# (§5) In some cases, a direct lysis buffer was used. An appropriate volume of 3× lysis buffer (10 mM Tris, 150 mM NaCl, 1.5%-2.5% Igepal and 0.1-1 U/uL RNAsin, pH 7.4) was directly added to either K562 or A673 cells in media and mixed by pipetting 3 times. The plates were then incubated at room temperature with shaking/rocking for 20-50 minutes to allow for lysis to take place. After this time, the cell lysate plate was transferred to ice to set up for the RT-qPCR reactions. The lysates could also be frozen at −80° C. for later use.
# (§6) To set up 10 uL RT-qPCR reactions, cell lysates were transferred to 384-well qPCR plates containing the master mix according to the table below. The plates were sealed, gently vortexed, and spun down before the run. The volumes were adjusted accordingly in some instances where the reaction was carried in 20 uL. The table below summarizes the components of the RT-qPCR reactions:
# (§7) The RT-qPCR reaction was performed using a QuantStudio (ThermoFisher) under the following fast cycling conditions. […]
# [2] = system: HTT CJ mRNA; test: Gene panel canonical junction qPCR assay, HTT; conditions: decrease in CJ mRNA levels, RT-qPCR
# Procedure: as §1, §2, §3, §4, §5, §6, §7
# [3] = system: HTT mRNA; test: RT-qPCR splicing assay for HTT mRNA isoforms (canonical junction CJ and alternative junction AJ); conditions: A673 or K562 cell line, 24 hours compound treatment; for IC50: decrease in CJ mRNA; for AC50: increase in AJ mRNA
# Procedure: as §1
# Cells-to-CT 1-step kit: ThermoFisher A25602, Cells-to-CT lysis reagent: ThermoFisher 4391851C, TaqMan™ Fast Virus 1-Step Master Mix: ThermoFisher 4444436 GAPDH: VIC-PL, ThermoFisher 4326317E (Assay: Hs99999905_m1)—used for K562/suspension cell lines GUSB: VIC-PL, ThermoFisher 4326320E (Assay: Hs99999908_m1)—used for K562/suspension cell lines PPIA: VIC-PL, ThermoFisher 4326316E (Assay: Hs99999904_m1)—used for A673/adherent cell lines
# as §2, §3, §4
# as §5, with “use. […]” for “use.”
# [4] = system: SMN2 CJ mRNA; test: Gene panel canonical junction qPCR assay, SMN2; conditions: decrease in CJ mRNA levels, RT-qPCR
# Procedure: as §1, §2, §3, §4, §5, §6, §7
SMILES,IC50 [1] [µM],IC50 [2] [µM],IC50 [3] [µM],AC50 [3] [µM],IC50 [4] [µM]
"CN(c1ccc2c(n1)CCOc1cc(-c3cn[nH]c3)ccc1-2)C1CC(C)(C)NC(C)(C)C1 [Compound 114, N-methyl-13-(1H-pyrazol-4-yl)-N-(2,2,6,6-tetramethylpiperidin-4-yl)-10-oxa-6-azatricyclo[9.4.0.0^[2,7]]pentadeca-1(11),2(7),3,5,12,14-hexaen-5-amine]",< 0.1,0.1 to 1,0.1 to 1,< 0.1,–
c1cnn(-c2ccc3c(c2)OCc2cc(N[C@@H]4C[C@H]5CC[C@@H](C4)N5)ccc2-3)c1 [Compound 119],1 to 10,> 10,> 10,> 10,–
"CC1(C)CC(Nc2ccc3c(n2)CCOc2cc(-c4cn[nH]c4)ccc2-3)CC(C)(C)N1 [Compound 141, 13-(1H-pyrazol-4-yl)-N-(2,2,6,6-tetramethylpiperidin-4-yl)-10-oxa-6-azatricyclo[9.4.0.0^[2,7]]pentadeca-1(11),2(7),3,5,12,14-hexaen-5-amine]",1 to 10,> 10,> 10,> 10,–
"CN(c1ccc2c(n1)CCOc1cc(-c3cn[nH]c3)ccc1-2)[C@@H]1C[C@H]2CC[C@@H](C1)N2 [Compound 127, N-[(1R,3S,5S)-8-azabicyclo[3.2.1]octan-3-yl]-N-methyl-13-(1H-pyrazol-4-yl)-10-oxa-6-azatricyclo[9.4.0.0^[2,7]]pentadeca-1(11),2(7),3,5,12,14-hexaen-5-amine]",–,> 10,> 10,> 10,> 10
"CC1(C)CC(Nc2ccc3c(c2)COc2cc(-n4cccn4)ccc2-3)CC(C)(C)N1 [Compound 118, 2,2,6,6-tetramethyl-N-[3-(pyrazol-1-yl)-6H-benzo[c]chromen-8-yl]piperidin-4-amine]",–,> 10,> 10,> 10,> 10
CCN(c1ccc2c(n1)OCc1cc(-n3cccn3)ccc1-2)[C@@H]1C[C@H]2CCC[C@@H](C1)N2 [Compound 195],1 to 10,0.1 to 1,–,–,0.1 to 1
"CN(c1ccc2c(c1)CCOc1cc(-n3cccn3)ccc1-2)[C@@H]1C[C@H]2CC[C@@H](C1)N2 [Compound 138, (1R,3S,5S)—N-methyl-N-[5-(pyrazol-1-yl)-8-oxatricyclo[9.4.0.0^[2,7]]pentadeca-1(11),2(7), 3,5,12,14-hexaen-13-yl]-8-azabicyclo [3.2.1] octan-3-amine]",1 to 10,1 to 10,1 to 10,1 to 10,–
c1cnn(-c2ccc3c(c2)COc2nc(N(C4CC4)[C@@H]4C[C@H]5CCC[C@@H](C4)N5)ccc2-3)c1 [Compound 203],–,–,1 to 10,1 to 10,–
"c1cc2c(cc1N[C@@H]1C[C@H]3CC[C@@H](C1)N3)CCOc1cc(-c3cn[nH]c3)ccc1-2 [Compound 132, N-[5-(1H-pyrazol-4-yl)-8-oxatricyclo[9.4.0.0^[2,7]]pentadeca-1(11),2(7),3,5,12,14-hexaen-13-yl]-8-azabicyclo [3.2.1] octan-3-amine]",> 10,> 10,> 10,> 10,–
"c1cc2c(cc1-c1cn[nH]c1)OCCc1nc(N[C@@H]3C[C@H]4CC[C@@H](C3)N4)ccc1-2 [Compound 140, N-[(1R,3S,5S)-8-azabicyclo[3.2.1]octan-3-yl]-13-(1H-pyrazol-4-yl)-10-oxa-6-azatricyclo[9.4.0.0^[2,7]]pentadeca-1(11),2(7),3,5,12,14-hexaen-5-amine]",–,> 10,> 10,> 10,> 10
"C[C@H]1C[C@H](N(C)c2ccc3c(c2)OCc2cc(-c4cn[nH]c4)ccc2-3)CCN1 [Compound 102, (2S,4R)—N,2-dimethyl-N-[8-(1H-pyrazol-4-yl)-6H-benzo[c]chromen-3-yl]piperidin-4-amine]",> 10,> 10,> 10,> 10,–
"C[C@@H]1C[C@H](N(C)c2ccc3c(c2)OCc2cc(-c4cn[nH]c4)ccc2-3)CCN1 [Compound 101, (2R,4R)—N,2-dimethyl-N-[8-(1H-pyrazol-4-yl)-6H-benzo[c]chromen-3-yl] piperidin-4-amine]",> 10,–,–,> 10,–
"CN(c1ccc2c(n1)CCOc1cc(-n3cccn3)ccc1-2)[C@@H]1C[C@H]2CC[C@@H](C1)N2 [Compound 128, N-[(1R,3S,5S)-8-azabicyclo[3.2.1]octan-3-yl]-N-methyl-13-(pyrazol-1-yl)-10-oxa-6-azatricyclo[9.4.0.0^[2,7]]pentadeca-1(11),2(7),3,5,12,14-hexaen-5-amine]",> 10,> 10,> 10,> 10,–
Cc1cnc(-c2ccc3c(c2)COc2nc(N(C)[C@@H]4C[C@H]5CC[C@@H](C4)N5)ccc2-3)o1 [Compound 206],–,–,0.1 to 1,0.1 to 1,–
c1cnn(-c2ccc3c(c2)COc2nc(N(C4CC4)[C@@H]4C[C@H]5CC[C@@H](C4)N5)ccc2-3)c1 [Compound 205],–,–,1 to 10,0.1 to 1,–
"CN(c1ccc2c(c1)COc1cc(-n3cccn3)ccc1-2)C1CC(C)(C)NC(C)(C)C1 [Compound 117, N,2,2,6,6-pentamethyl-N-[3-(pyrazol-1-yl)-6H-benzo[c]chromen-8-yl]piperidin-4-amine]",–,> 10,> 10,> 10,> 10
CC1(C)CC(N(c2ccc3c(n2)OCc2cc(-n4cccn4)ccc2-3)C2CC2)CC(C)(C)N1 [Compound 204],–,–,1 to 10,> 10,–
CN(c1ccc2c(n1)COc1cc(-n3cccn3)ccc1-2)[C@@H]1C[C@H]2CC[C@@H](C1)N2 [Compound 109],–,–,0.1 to 1,0.1 to 1,–
CN(c1ccc2c(c1)COc1cc(-n3cccn3)ccc1-2)[C@@H]1C[C@H]2CC[C@@H](C1)N2 [Compound 105],–,> 10,> 10,> 10,> 10
"CN(c1ccc2c(c1)OCc1cc(-c3cn[nH]c3)ccc1-2)[C@@H]1C[C@H]2CC[C@@H](C1)N2 [Compound 104, (1R,3S,5S)—N-Methyl-N-[8-(1H-pyrazol-4-yl)-6H-benzo[c]chromen-3-yl]-8-azabicyclo[3.2.1]octan-3-amine]",> 10,> 10,> 10,> 10,–
CN(c1ccc2c(c1)CCOc1cc(-c3cn[nH]c3)ccc1-2)[C@@H]1C[C@H]2CC[C@@H](C1)N2 [Compound 112],> 10,–,–,–,–
